# Laboratory results published in patent publication US5744453A, “Polyamine conjugates for treatment of infection” (priority 1996, dated 1998).
# Where two headings read alike, the source gives them in different places.
# What was measured:
# Type in all cases: cell-based
# [1] = tested on: Pseudomonas aeruginosa 27853; assay: Determination of MIC against bacteria (Table 1), P. aeruginosa 27853; settings: read-out: minimum inhibitory concentration (MIC), P. aeruginosa 27853
# Method: (§1) Antibiotic indicator strains Escherichia coli strain 25922, Enterococcus faecalis 29212, Pseudomonas aeruginosa 27853, and Staphylococcus aureus 29213 are obtained from the American Type Tissue Culture Collection (ATCC) in Rockville, Md. The cystic fibrosis isolate, Pseudomonas aeruginosa 39324, is also obtained from ATCC. Bacteria are routinely cultivated in cation-supplemented Mueller-Hinton broth (CAMHB) or agar at 37° C.
# (§2) The minimum inhibitory concentration (MIC) of glycosylated and non-glycosylated steroidal polyamines for antibiotic indicator strains is determined by dissolving the test compounds in deionized water to a final concentration of 1 mg per mL. […] These solutions are sterilized by filtration through 0.22 micron syringe filters.
# (§3) Stock solutions of individual compounds are serially diluted (two-fold) in sterile CAMHB in 96-well tissue culture dishes (Falcon) and inoculated with antibiotic indicator strains that are prepared as described below.
# (§4) Antibiotic indicator strains are grown in 5 mL of CAMHB for 3-4 h at 37° C. with shaking (200 rpm) on a New Brunswick rotary shaker. Bacteria are adjusted to a turbidity that matched a 0.5 McFarland standard (ca. 10^8 CFU per mL) in sterile 0.85% saline. These bacterial suspensions are diluted 1:20 in sterile 0.85% saline and 10 μL (ca. […]) of each suspension is used to inoculate individual wells of a 96 well plate that contained different concentrations of the test compounds. Following inoculation, the plates are sealed with plastic tape, incubated for 24 h at 37° C. and visually inspected for bacterial growth. CAMHB inoculated with each of the antibiotic test strains and uninoculated CAMBH plus each of the test compounds served as positive and negative controls.
# [2] = tested on: Escherichia coli strain 25922; assay: Determination of MIC against bacteria (Table 1), E. coli 25922; settings: read-out: minimum inhibitory concentration (MIC), E. coli 25922
# Method: as §1, §2, §3, §4
# [3] = tested on: Pseudomonas aeruginosa 39324; assay: Determination of MIC against bacteria (Table 1), P. aeruginosa 39324 (cystic fibrosis isolate); settings: read-out: minimum inhibitory concentration (MIC), P. aeruginosa 39324
# Method: as §1, §2, §3, §4
# [4] = tested on: Enterococcus faecalis 29212; assay: Determination of MIC against bacteria (Table 1), E. faecalis 29212; settings: read-out: minimum inhibitory concentration (MIC), E. faecalis 29212
# Method: as §1, §2, §3, §4
# [5] = tested on: Staphylococcus aureus 29213; assay: Determination of MIC against bacteria (Table 1), S. aureus 29213; settings: read-out: minimum inhibitory concentration (MIC), S. aureus 29213
# Method: as §1, §2, §3, §4
# [6] = Pseudomonas aeruginosa, 27853, 24 h
# [7] = Pseudomonas aeruginosa, 39324, 24 h
# [8] = Enterococcus faecalis, 29212, 24 h
# [9] = Staphylococcus aureus, 29213, 24 h
# [10] = Pseudomonas aeruginosa, 27853, CAMHB, 24 h at 37° C., tested from 1.56 to 200 μg per mL
# [11] = Escherichia coli, 25922, CAMHB, 24 h at 37° C., tested from 1.56 to 200 μg per mL
# [12] = Pseudomonas aeruginosa, 39324, CAMHB, 24 h at 37° C., tested from 1.56 to 200 μg per mL
# [13] = Enterococcus faecalis, 29212, CAMHB, 24 h at 37° C., tested from 1.56 to 200 μg per mL
# [14] = Staphylococcus aureus, 29213, CAMHB, 24 h at 37° C., tested from 1.56 to 200 μg per mL
SMILES,"MIC [1, 6]","MIC ([2]; Escherichia coli, 25922, 24 h)","MIC [3, 7]","MIC [4, 8]","MIC [5, 9]","MIC [1, 10]","MIC [2, 11]","MIC [3, 12]","MIC [4, 13]","MIC [5, 14]"
"C[C@H](CCC(=O)NCCCNCCCCNCCCN)[C@H]1CC[C@H]2[C@@H]3CC[C@@H]4C[C@H](O)CC[C@]4(C)[C@H]3C[C@H](O)[C@]12C [Compound A, 3α,12α-dihydroxy-7-deoxy-5β-cholan-24-oic acid, N-(4,9-diaza-12-aminododecyl)amide]",3.12 µg/mL,12.5 µg/mL,25 µg/mL,12.5 µg/mL,6.25 µg/mL,–,–,–,–,–
"C[C@H](CCC(=O)NCCCNCCCCNCCCN)[C@H]1CC[C@H]2[C@@H]3[C@H](O)C[C@@H]4C[C@H](O)CC[C@]4(C)[C@H]3C[C@H](O)[C@]12C [Compound B, 3α,7α,12α-trihydroxy-5β-cholan-24-oic acid, N-(4,9-diaza-12-aminododecyl)amide]",100 to 200 µg/mL,200 µg/mL,100 µg/mL,200 µg/mL,50 µg/mL,–,–,–,–,–
"C[C@H](CCC(=O)NCCCNCCCCNCCCN)[C@H]1CC[C@H]2[C@@H]3[C@H](O[C@H]4O[C@H](CO)[C@@H](O)[C@H](O)[C@H]4O)C[C@@H]4C[C@H](O)CC[C@]4(C)[C@H]3C[C@H](O[C@H]3O[C@H](CO)[C@@H](O)[C@H](O)[C@H]3O)[C@]12C [Compound C, 3α-hydroxy-7α,12α-di(1'α-glucosyl)-5β-cholan-24-oic acid, N-(4,9-diaza-12-aminododecyl)amide]",200 µg/mL,200 µg/mL,–,> 200 µg/mL,200 µg/mL,–,–,–,–,–
"C[C@H](CCC(=O)NCCCNCCCCNCCCN)[C@H]1CC[C@H]2[C@@H]3CC[C@@H]4C[C@H](O)CC[C@]4(C)[C@H]3C[C@H](O[C@H]3O[C@H](CO)[C@@H](O)[C@H](O)[C@H]3O)[C@]12C [Compound D, 3α-hydroxy-7-deoxy-12α-(1'α-glucosyl)-5β-cholan-24-oic acid, N-(4,9-diaza-12-aminododecyl)amide]",100 to 200 µg/mL,100 µg/mL,–,200 µg/mL,50 to 100 µg/mL,–,–,–,–,–
"C[C@H](CCC(=O)NCCCNCCCCNCCCN)[C@H]1CC[C@H]2[C@@H]3[C@H](O[C@H]4O[C@H](CO)[C@@H](O)[C@H](O)[C@H]4O)C[C@@H]4C[C@H](O)CC[C@]4(C)[C@H]3CC[C@]12C [Compound E, 3α-hydroxy-12-deoxy-7α-(1'α-glucosyl)-5β-cholan-24-oic acid, N-(4,9-diaza-12-aminododecyl)amide]",12.5 µg/mL,12.5 µg/mL,12.5 µg/mL,25 µg/mL,25 µg/mL,–,–,–,–,–
"C[C@H](CCC(=O)NCCNCCNCCNCCN)[C@H]1CC[C@H]2[C@@H]3CC[C@@H]4C[C@H](O)CC[C@]4(C)[C@H]3C[C@H](O)[C@]12C [Compound F, 3α,12α-dihydroxy-7-deoxy-5β-cholan-24-oic acid, N-(3,6,9-triaza-11-aminoundecyl)amide]",–,–,–,–,–,100 µg/mL,100 µg/mL,100 µg/mL,100 µg/mL,25 µg/mL
"C[C@H](CCC(=O)NCCNCCNCCNCCNCCN)[C@H]1CC[C@H]2[C@@H]3CC[C@@H]4C[C@H](O)CC[C@]4(C)[C@H]3C[C@H](O)[C@]12C [Compound G, 3α,12α-dihydroxy-7-deoxy-5β-cholan-24-oic acid, N-(3,6,9,12-tetraaza-14-aminotetradecyl)amide]",–,–,–,–,–,50 µg/mL,100 µg/mL,50 to 100 µg/mL,100 µg/mL,25 µg/mL
"C[C@H](CCC(=O)NCCNCCNCCNCCN)[C@H]1CC[C@H]2[C@@H]3[C@H](O)C[C@@H]4C[C@H](O)CC[C@]4(C)[C@H]3CC[C@]12C [Compound I, 3α,7α-dihydroxy-12-deoxy-5β-cholan-24-oic acid, N-(3,6,9-triaza-11-aminoundecyl)amide]",–,–,–,–,–,50 µg/mL,25 µg/mL,50 µg/mL,25 µg/mL,12.5 µg/mL
"C[C@H](CCC(=O)NCCNCCNCCNCCN)[C@H]1CC[C@H]2[C@@H]3[C@H](O)C[C@@H]4C[C@H](O)CC[C@]4(C)[C@H]3C[C@H](O)[C@]12C [Compound J, 3α,7α,12α-trihydroxy-5β-cholan-24-oic acid, N-(3,6,9-triaza-11-aminoundecyl)amide]",–,–,–,–,–,75 µg/mL,75 µg/mL,37.5 µg/mL,18.7 µg/mL,37.5 µg/mL
